From US8871934B2, “Fluorene compound and pharmaceutical use thereof” (Japan Tobacco Inc., priority 2008, dated 2014)
pIC50: −log10 of the molar value. Like-named read-outs stand apart in the source and are kept apart here.

Molecular target: human PDHK2 (hPDHK2) (Homo sapiens (Human), UniProt Q15119)
Experiment: Inhibitory action of PDHK activity in vitro (kinase reaction, residual PDH activity measured)
Format: biochemical
[1] = PDHK inhibitory activity, class symbol of IC50
[2] = read-out: PDHK inhibitory activity IC50
[3] = PDHK inhibitory activity (class symbol)

| pIC50 (PDHK inhibitory activity IC50 (μmol/L)) | SMILES | pIC50 [1] | pIC50 [2] | pIC50 [3] | pIC50 (class symbol of IC50, read-out: PDHK inhibitory activity) |
| --- | --- | --- | --- | --- | --- |
| – | O=C(c1cnc2c(c1)C(O)(C(F)(F)F)c1ccccc1-2)N1CCC1 (centres unmarked) [compound 213] | 6.00 to 7.00 | 6.76 | – | – |
| – | CC1CCN1C(=O)c1ccc2c(c1)C(O)(C(F)(F)F)c1ccccc1-2 (centres unmarked) [compound 90] | 6.00 to 7.00 | 6.32 | – | – |
| – | COC(=O)COc1cc(Br)c2c(c1)C(O)(C(F)(F)F)c1ccccc1-2 (single isomer, unassigned) [compound 451, (4-bromo-9-hydroxy-9-trifluoromethyl-9H-fluoren-2-yloxy)-acetic acid methyl ester] | 6.00 to 7.00 | 6.99 | – | – |
| – | COc1ccc(-c2ccc3c(c2)C(O)(C(F)(F)F)c2ccccc2-3)cc1 (centres unmarked) [compound 172] | 6.00 to 7.00 | 6.11 | – | – |
| – | O=C(O)CCCOc1cc(-c2cn[nH]c2)c2c(c1)C(O)(C(F)(F)F)c1ccccc1-2 (centres unmarked) [compound 498] | > 7.00 | 7.33 | – | – |
| – | Cn1cc(-c2cc(OCC(=O)N3CCC(CO)CC3)cc3c2-c2ccccc2C3(O)C(F)(F)F)cn1 (centres unmarked) [compound 440] | > 7.00 | 7.49 | – | – |
| – | O=C(COc1ccc2c(c1)C(O)(C(F)(F)F)c1ccccc1-2)N1CCCCC1 (centres unmarked) [compound 361] | 6.00 to 7.00 | 6.36 | – | – |
| – | OCCCCCOc1cc(Cl)c2c(c1)C(O)(C(F)(F)F)c1ccccc1-2 (centres unmarked) [compound 387] | > 7.00 | 7.20 | – | – |
| – | NC(=O)c1cc(Cl)cc2c1-c1ccccc1C2(O)C(F)(F)F (centres unmarked) [compound 636] | – | 6.62 | 6.00 to 7.00 | – |
| – | CN(C)C(=O)CCOc1cc(-c2cnn(C)c2)c2c(c1)C(O)(C(F)(F)F)c1ccccc1-2 (centres unmarked) [compound 455] | > 7.00 | 7.59 | – | – |
| – | NC(=O)c1ccc2c(c1)-c1ccccc1C2(O)C(F)(F)F (centres unmarked) [compound 42] | < 6.00 | 5.25 | – | – |
| – | CC(C)(C)CCc1cc(-c2cnn(C(CO)CO)c2)c2c(c1)C(O)(C(F)(F)F)c1ccccc1-2 (centres unmarked) [compound 666] | – | 7.57 | > 7.00 | – |
| – | CC1CCN(c2ccc3c(c2)C(O)(C(F)(F)F)c2ccccc2-3)C1 (centres unmarked) [compound 269] | < 6.00 | 5.87 | – | – |
| – | CC(=O)N(C)CCOc1cnc2c(c1)C(O)(C(F)(F)F)c1ccccc1-2 (centres unmarked) [compound 398] | 6.00 to 7.00 | 6.92 | – | – |
| – | O=C(O)CCCOc1cc(-c2cncnc2)c2c(c1)C(O)(C(F)(F)F)c1ccccc1-2 (centres unmarked) [compound 510] | > 7.00 | 7.21 | – | – |
| – | CC(C)(C)Cn1cc(-c2cc(C(N)=O)c3c(c2)C(O)(C(F)(F)F)c2ccccc2-3)cn1 (centres unmarked) [compound 646] | – | 7.40 | > 7.00 | – |
| – | Cn1cc(-c2cc(OCCCCCO)cc3c2-c2ccccc2C3(O)C(F)(F)F)cn1 (centres unmarked) [compound 407] | > 7.00 | 7.51 | – | – |
| – | O=C(O)Cn1cc(-c2cccc3c2-c2ccccc2C3(O)C(F)(F)F)cn1 (centres unmarked) [compound 483] | 6.00 to 7.00 | 6.27 | – | – |
| – | Cc1ccccc1-c1ccc2c(c1)C(O)(C(F)(F)F)c1ccccc1-2 (centres unmarked) [compound 151] | < 6.00 | 5.28 | – | – |
| – | Cc1cc(-c2cnn(CCC(=O)O)c2)c2c(c1)C(O)(C(F)(F)F)c1ccccc1-2 (single isomer, unassigned; (+)) [compound 538, (+)-3-[4-(9-hydroxy-2-methyl-9-trifluoromethyl-9H-fluoren-4-yl)-pyrazol-1-yl]-propionic acid] | > 7.00 | 7.59 | – | – |
| – | Cc1noc(-c2cccc3c2-c2ccccc2C3(O)C(F)(F)F)n1 (centres unmarked) [compound 142] | 6.00 to 7.00 | 6.27 | – | – |

| pIC50 (PDHK inhibitory activity IC50 (μmol/L)) | SMILES | pIC50 [1] | pIC50 [2] | pIC50 [3] | pIC50 (class symbol of IC50, read-out: PDHK inhibitory activity) |
| --- | --- | --- | --- | --- | --- |
| – | OCCn1cc(-c2cc(F)cc3c2-c2ccccc2C3(O)C(F)(F)F)cn1 (centres unmarked) [compound 505] | > 7.00 | 7.34 | – | – |
| 7.57 | O=C(O)C1(n2cc(-c3cc(F)cc4c3-c3ccccc3[C@]4(O)C(F)(F)F)cn2)CCCC1 (stereo in doubt) [compound 549] | > 7.00 | – | – | – |
| – | O=C(O)CCn1cc(-c2ccc3c(c2)C(O)(C(F)(F)F)c2cccc(CO)c2-3)cn1 (centres unmarked) [compound 600] | – | < 6.00 | – | < 6.00 |
| – | NC(=O)c1cc(CCCN2CCCC2=O)cc2c1-c1ccccc1C2(O)C(F)(F)F (centres unmarked) [compound 655] | – | 7.14 | > 7.00 | – |
| – | CN(C)C(=O)c1ccc2c(c1)-c1ccccc1C2(O)C(F)(F)F (centres unmarked) [compound 44] | < 6.00 | < 4.00 | – | – |
| – | Cn1cc(-c2cc(C(=O)N3CCC(CO)C3)cc3c2-c2ccccc2C3(O)C(F)(F)F)cn1 (centres unmarked) [compound 394] | > 7.00 | 7.24 | – | – |
| – | NC(=O)COC1CN(C(=O)c2cc(Cl)c3c(c2)C(O)(C(F)(F)F)c2ccccc2-3)C1 (centres unmarked) [compound 349] | 6.00 to 7.00 | 6.90 | – | – |
| – | O=C(c1cccc2c1-c1ccccc1C2(O)C(F)(F)F)N1CC1 (centres unmarked) [compound 111] | < 6.00 | < 5.00 | – | – |
| – | Cc1cc(-c2cnn(C(CO)CO)c2)c2c(c1)C(O)(C(F)(F)F)c1ccccc1-2 (single isomer, unassigned) [compound 605] | – | 7.72 | > 7.00 | – |
| – | CN(C)C(=O)CCOc1ccc2c(c1)C(O)(C(F)(F)F)c1ccccc1-2 (centres unmarked) [compound 303] | 6.00 to 7.00 | 6.12 | – | – |
| – | CC(=O)c1cc(-c2cnn(C)c2)cc2c1-c1ccccc1C2(O)C(F)(F)F (centres unmarked) [compound 596] | > 7.00 | 7.39 | – | – |
| – | COc1cc(-c2cnn(CCO)c2)c2c(c1)C(O)(C(F)(F)F)c1ccccc1-2 (centres unmarked) [compound 458] | > 7.00 | 7.41 | – | – |
| – | COC(=O)c1cccc2c1-c1ccc(F)cc1C2(O)C(F)(F)F (centres unmarked) [compound 219] | < 6.00 | < 5.00 | – | – |
| – | CN(C)C(=O)Cn1cc(-c2cccc3c2-c2ccccc2C3(O)C(F)(F)F)cn1 (centres unmarked) [compound 495] | 6.00 to 7.00 | 6.92 | – | – |
| – | O=C1COCCN1CCOc1ccc2c(c1)C(O)(C(F)(F)F)c1ccccc1-2 (centres unmarked) [compound 490] | 6.00 to 7.00 | 6.65 | – | – |
| – | Cc1cc(C(=O)N2CC(OCC(N)=O)C2)cc2c1-c1ccccc1C2(O)C(F)(F)F (centres unmarked) [compound 352] | 6.00 to 7.00 | 6.96 | – | – |
| – | Cc1cc(-c2cnn(C(C)(C)C(=O)O)c2)c2c(c1)C(O)(C(F)(F)F)c1ccccc1-2 (single isomer, unassigned) [compound 574] | > 7.00 | 7.28 | – | – |
| – | O=C(O)CCCCOc1cc(Cl)c2c(c1)C(O)(C(F)(F)F)c1ccccc1-2 (centres unmarked) [compound 384] | 6.00 to 7.00 | 6.66 | – | – |
| – | OC[C@@H](O)Cn1cc(-c2cc(F)cc3c2-c2ccccc2C3(O)C(F)(F)F)cn1 (single isomer, unassigned) [compound 565] | > 7.00 | 7.74 | – | – |
| – | O=C(O)CCCn1cc(-c2cc(CO)cc3c2-c2ccccc2C3(O)C(F)(F)F)cn1 (centres unmarked) [compound 623] | – | 6.88 | 6.00 to 7.00 | – |
| – | CC(C)OC(=O)c1cccc2c1-c1ccccc1C2(O)C(F)(F)F (centres unmarked) [compound 60] | < 6.00 | 5.69 | – | – |

| pIC50 (PDHK inhibitory activity IC50 (μmol/L)) | SMILES | pIC50 [1] | pIC50 [2] | pIC50 [3] | pIC50 (class symbol of IC50, read-out: PDHK inhibitory activity) |
| --- | --- | --- | --- | --- | --- |
| – | CCN(CC)C(=O)C1CN(C(=O)c2ccc3c(c2)C(O)(C(F)(F)F)c2ccccc2-3)C1 (centres unmarked) [compound 200] | 6.00 to 7.00 | 6.63 | – | – |
| – | O=C(COc1ccc2c(c1)C(O)(C(F)(F)F)c1ccccc1-2)N1CCC(CO)CC1 (centres unmarked) [compound 397] | 6.00 to 7.00 | 6.37 | – | – |
| – | Cn1nnnc1-c1cccc2c1-c1ccccc1C2(O)C(F)(F)F (centres unmarked) [compound 251] | < 6.00 | < 5.00 | – | – |
| – | O=C(c1cc(Cl)c2c(c1)C(O)(C(F)(F)F)c1ccccc1-2)N1CC(CO)C1 (centres unmarked) [compound 330] | 6.00 to 7.00 | 6.90 | – | – |
| – | O=C(O)CCCOc1cc(-c2cncnc2)c2c(c1)C(O)(C(F)(F)F)c1ccccc1-2 (single isomer, unassigned) [compound 604] | – | 7.46 | > 7.00 | – |
| – | OCc1cc(Cl)cc2c1-c1ccccc1C2(O)C(F)(F)F (centres unmarked) [compound 635] | – | 6.29 | 6.00 to 7.00 | – |
| – | CC(C)(C)Cn1cc(-c2cc(CO)c3c(c2)C(O)(C(F)(F)F)c2ccccc2-3)cn1 (centres unmarked) [compound 650] | – | 7.44 | > 7.00 | – |
| – | OC1(C(F)(F)F)c2ccccc2-c2ccc(-n3cccn3)cc21 (centres unmarked) [compound 560] | 6.00 to 7.00 | 6.01 | – | – |
| – | O=C(c1cc(-c2cnn(CCO)c2)c2c(c1)C(O)(C(F)(F)F)c1ccccc1-2)N1CCCC1 (centres unmarked) [compound 476] | > 7.00 | 7.28 | – | – |
| – | O=C1CCCN1c1ccc2c(c1)C(O)(C(F)(F)F)c1ccccc1-2 (centres unmarked) [compound 147] | < 6.00 | 5.76 | – | – |
| – | CC(C)(C)Cn1cc(-c2cc(C(N)=O)c3c(c2)C(O)(C(F)(F)F)c2ccccc2-3)cn1 (single isomer, unassigned) [compound 659, 2-[1-(2,2-dimethyl-propyl)-1H-pyrazol-4-yl]-9-hydroxy-9-trifluoromethyl-9H-fluorene-4-carboxylic acid amide] | – | 7.80 | > 7.00 | – |
| – | COC(=O)COc1cc(Cl)c2c(c1)C(O)(C(F)(F)F)c1ccccc1-2 (single isomer, unassigned) [compound 481, (4-chloro-9-hydroxy-9-trifluoromethyl-9H-fluoren-2-yloxy)-acetic acid methyl ester] | 6.00 to 7.00 | 6.60 | – | – |
| – | O=C1CCCCN1CCOc1ccc2c(c1)C(O)(C(F)(F)F)c1ccccc1-2 (centres unmarked) [compound 416] | 6.00 to 7.00 | 6.98 | – | – |
| – | OC[C@H](O)Cn1cc(-c2cc(F)cc3c2-c2ccccc2C3(O)C(F)(F)F)cn1 (single isomer, unassigned) [compound 566] | > 7.00 | 7.68 | – | – |
| – | COc1cc(-c2cnn(CCCC(=O)O)c2)c2c(c1)C(O)(C(F)(F)F)c1ccccc1-2 (single isomer, unassigned) [compound 589] | > 7.00 | 7.60 | – | – |
| – | OC1(C(F)(F)F)c2ccccc2-c2c(-c3cnco3)cccc21 (centres unmarked) [compound 92] | 6.00 to 7.00 | 6.39 | – | – |
| – | O=C(O)CCOc1ccc2c(c1)C(O)(C(F)(F)F)c1ccccc1-2 (centres unmarked) [compound 291] | < 6.00 | 5.23 | – | – |
| – | O=C(c1ccc2c(c1)C(O)(C(F)(F)F)c1ccccc1-2)N1CC(C(=O)N2CCC(O)CC2)C1 (centres unmarked) [compound 203] | 6.00 to 7.00 | 6.37 | – | – |
| – | CCCCCCOc1ccc2c(c1)C(O)(C(F)(F)F)c1ccccc1-2 (centres unmarked) [compound 294] | 6.00 to 7.00 | 6.15 | – | – |
